Reference: US10323000B2, “Indole derivatives and their use in neurodegenerative diseases” (priority 2014, dated 2019)
Read-outs that look alike come from different tables or passages of the source.

Experiments:
[1] = molecular target: P2X7 (IL-1β release from THP-1 cells) (Homo sapiens (Human), UniProt Q99572); test: IL-1β release assay; type: cell-based
Description: IL-1β release assay: The activation of P2X7 by ATP leads to a fast transient activation of cells resulting in influx of Ca^2+ followed by conversion of pro-IL-1β to active IL-1β. The functional activity of P2X7 compounds was measured by the release of mature […] in the culture medium of THP-1 cells, detected by sandwich ELISA. […] THP-1 cells were harvested from the flask in 50 ml by centrifugation for 3 min at 100 g. The cells were resuspended to 2×10^5 cells/ml in medium supplemented with 0.5 μM PMA and incubated. The cells were washed and resuspended to 1.5×10^5 cells/ml in medium complemented with 10 ng/ml LPS, and the cells were primed for 4 h at 37° C., 5% CO2. After addition of 20 μL of prediluted test compounds, blank, standard and control reagents, cells were incubated for a further 20 min at 37° C. and stimulated with 0.8 mM BzATP for 30 minutes. The cells were centrifuged, supernatant was collected and the presence of mature IL-1β was detected using Dual human IL-1b kit following manufacturer's instruction. The tetrahydrobenzodiazepine analogs effectively modulated the activity of P2X7 in the cells as measured by the levels of pro-inflammatory cytokine IL-1β, which is released by the activation of P2X7 receptor.

human P2X7 receptor = human P2X7 receptor (Homo sapiens (Human), UniProt Q99572); test: Pore permeation assay (YO PRO dye uptake); type: cell-based
Description: Agonist-induced pore formation was determined by measuring cellular uptake of YO PRO fluorescence dye in HEK293 transfected with human P2X7 receptor. A HEK293 cell over expressing human P2X7 was harvested using HQTase reagent to detach the cells from T75 cm flask. The harvested cells are centrifuged @1200 rpm for 5 min at room temperature. The viability of cells was determined by Trypan blue dye and the cells are plated @10,000 cell/well in 50 ul volume in a 384W BD Poly lysine coated plate and incubated overnight at 37 C. […] The plate was centrifuged at 1000 rpm for 5 seconds and incubated at room temperature for 30 minutes. The uptake of YO PRO dye into the cells was measured using Envision Fluorescence plate reader instrument (Perkin Elmer).

[2] = THP-1 cells, LPS primed, 0.8 mM BzATP, mature IL-1β by sandwich ELISA, read-out: hTHP-1/IL-ib IC50
[3] = HEK293 transfected with human P2X7, BzATP 10 uM, YO PRO dye uptake, read-out: hP2X7 IC50

Sequence of human P2X7 receptor (Q99572 whole entry): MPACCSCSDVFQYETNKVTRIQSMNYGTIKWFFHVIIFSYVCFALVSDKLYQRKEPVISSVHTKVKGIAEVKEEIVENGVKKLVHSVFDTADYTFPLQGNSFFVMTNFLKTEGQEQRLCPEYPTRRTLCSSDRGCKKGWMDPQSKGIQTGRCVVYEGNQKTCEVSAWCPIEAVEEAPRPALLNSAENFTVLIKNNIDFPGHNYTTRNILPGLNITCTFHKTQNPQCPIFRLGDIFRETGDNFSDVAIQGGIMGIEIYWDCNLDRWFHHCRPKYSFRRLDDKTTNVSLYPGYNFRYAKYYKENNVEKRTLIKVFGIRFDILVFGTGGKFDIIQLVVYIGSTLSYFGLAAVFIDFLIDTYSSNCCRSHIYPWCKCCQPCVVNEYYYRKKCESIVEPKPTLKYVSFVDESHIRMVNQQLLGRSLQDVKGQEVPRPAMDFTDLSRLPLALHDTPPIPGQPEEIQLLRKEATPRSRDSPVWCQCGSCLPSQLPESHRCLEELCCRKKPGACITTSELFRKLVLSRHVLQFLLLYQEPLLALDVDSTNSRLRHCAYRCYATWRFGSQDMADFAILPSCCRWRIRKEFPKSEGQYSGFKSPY
Sequence of P2X7 (IL-1β release from THP-1 cells) (Q99572 whole entry): as above

Row | Compound | IC50 [1] [nM] | IC50 (human P2X7 receptor) [nM] | IC50 [1, 2] [nM] | IC50 (human P2X7 receptor; [3]) [nM]
1 | O=C(NCC1(O)CCC(F)(F)CC1)c1cn(CC(F)(F)F)c2cccc(Cl)c12 [Compound 4, 4-chloro-N-((4,4-difluoro-1-hydroxycyclohexyl)methyl)-1-(2,2,2-trifluoroethyl)-1H-indole-3-carboxamide] | 101 to 500 | 10 to 100 |  | 
2 | C[C@H]1CCC[C@@](O)(CNC(=O)c2cn(CC3CCCO3)c3cccc(Cl)c23)C1 (stereo partly drawn) [Compound 140, 4-chloro-N-(((1S,3S)-1-hydroxy-3-methylcyclohexyl)methyl)-1-((tetrahydrofuran-2-yl)methyl)-1H-indole-3-carboxamide] | 10 to 100 | 10 to 100 |  | 
3 | O=C(NCC1CCC(F)(F)CC1)c1cn(CCOC(F)F)c2cccc(Cl)c12 [Compound 95, 4-chloro-N-((4,4-difluorocyclohexyl)methyl)-1-(2-(difluoromethoxy)ethyl)-1H-indole-3-carboxamide] | 101 to 500 | 10 to 100 |  | 
4 | C[C@@H]1CCC[C@](O)(CNC(=O)c2cn(CC(F)(F)F)c3cccc(Cl)c23)C1 [Compound 3, 4-chloro-N-(((1R,3R)-1-hydroxy-3-methylcyclo-hexyl)methyl)-1-(2,2,2-trifluoroethyl)-1H-indole-3-carboxamide] | 101 to 500 | 10 to 100 |  | 
5 | O=C(NCC1CCC(F)(F)CC1)c1cn(CCN2CCCCC2)c2cccc(Cl)c12 [Compound 193, 4-chloro-N-((4,4-difluorocyclohexyl)methyl)-1-(2-(piperidin-1-yl)ethyl)-1H-indole-3-carboxamide] | 10 to 100 | 10 to 100 |  | 
6 | CC(=O)N1CC[C@H]1Cn1cc(C(=O)NCC2CCC(F)(F)CC2)c2c(Cl)cccc21 [Compound 181, (S)-1-((1-acetylazetidin-2-yl)methyl)-4-chloro-N-((4,4-difluorocyclohexyl)methyl)-1H-indole-3-carboxamide] |  |  | 101 to 500 | 101 to 500
7 | O=C(NCC1(O)CCCC(C(F)(F)F)C1)c1cn(C2CCOC2)c2cccc(Cl)c12 (centres unmarked) [Compound 100, 4-chloro-N-((1-hydroxy-3-(trifluoromethyl)cyclohexyl)methyl)-1-(tetrahydrofuran-3-yl)-1H-indole-3-carboxamide] |  |  | > 1000 | > 1000
8 | O=C(NCC1(O)CCC(F)(F)CC1)c1cn(CC2CCCO2)c2cccc(Cl)c12 (centres unmarked) [Compound 142, 4-chloro-N-((4,4-difluoro-1-hydroxycyclohexyl)methyl)-1-((tetrahydrofuran-2-yl)methyl)-1H-indole-3-carboxamide] | 101 to 500 | 10 to 100 |  | 
9 | O=C(NC[C@@H]1CCCC[C@H]1O)c1cn(C2COC2)c2cccc(Cl)c12 [Compound 87] |  | 101 to 500 | > 1000 | 
10 | CC(C(=O)N(C)C)n1cc(C(=O)NCC2CCC(F)(F)CC2)c2c(Cl)cccc21 (centres unmarked) [Compound 200, 4-chloro-N-((4,4-difluorocyclohexyl)methyl)-1-(1-(dimethylamino)-1-oxopropan-2-yl)-1H-indole-3-carboxamide] | 10 to 100 |  |  | < 10
11 | O=C(NCC1CCC(F)(F)CC1)c1cn(CCOC2CC2)c2cccc(Cl)c12 [Compound 149, 4-chloro-1-(2-cyclopropoxyethyl)-N-((4,4-difluorocyclohexyl)methyl)-1H-indole-3-carboxamide] | 101 to 500 | 10 to 100 |  | 
12 | O=C(NCC1CCCCC1)c1cn(C2CCOC2)c2cccc(Cl)c12 (centres unmarked) [Compound 101, 4-chloro-N-(cyclohexylmethyl)-1-(tetrahydrofuran-3-yl)-1H-indole-3-carboxamide] | 500 to 999 | 101 to 500 |  | 
13 | O=C(NCC1(O)CCCC(F)(F)C1)c1cn(CC2CCN2)c2cccc(Cl)c12 (centres unmarked) [Compound 124, 1-(azetidin-2-ylmethyl)-4-chloro-N-((3,3-difluoro-1-hydroxycyclohexyl)methyl)-1H-indole-3-carboxamide] | 10 to 100 | 10 to 100 |  | 
14 | COCCn1cc(C(=O)NCC2(O)CCCCC2)c2c(Cl)cccc21 [Compound 19, 4-Chloro-1-(2-methoxy-ethyl)-1H-indole-3-carboxylic acid (1-hydroxy-cyclohexyl methyl)-amide] | 101 to 500 | 10 to 100 |  | 
15 | C[C@@H]1CCC[C@](O)(CNC(=O)c2cn(C3CCOC3)c3cccc(Cl)c23)C1 (stereo partly drawn) [Compound 113, 4-chloro-N-(((1R,3R)-1-hydroxy-3-methylcyclohexyl)methyl)-1-(tetrahydrofuran-3-yl)-1H-indole-3-carboxamide] | 10 to 100 | 10 to 100 |  | 
16 | O=C(NC[C@]1(O)CCCC(F)(F)C1)c1cn(CCN2CCCC2=O)c2cccc(Cl)c12 [Compound 187, (S)-4-chloro-N-((3,3-difluoro-1-hydroxycyclohexyl)methyl)-1-(2-(2-oxopyrrolidin-1-yl)ethyl)-1H-indole-3-carboxamide] | 101 to 500 | 10 to 100 |  | 
17 | O=C(NCC1CCCC(F)(F)C1)c1cn(CCC(F)F)c2cccc(Cl)c12 (centres unmarked) [Compound 9, 4-Chloro-1-(3,3-difluoro-propyl)-1H-indole-3-carboxylic acid (3,3-difluoro-cyclohexylmethyl)-amide] | 101 to 500 |  |  | < 10
18 | COCCn1cc(C(=O)NC[C@]2(O)CCCC(F)(F)C2)c2c(Cl)cccc21 [Compound 20, (S)-4-chloro-N-((3,3-difluoro-1-hydroxycyclohexyl)methyl)-1-(2-methoxyethyl)-1H-indole-3-carboxamide] | 101 to 500 | 10 to 100 |  | 
19 | COCCn1cc(C(=O)NC(CO)c2cccc(C(F)(F)F)c2Cl)c2c(Cl)cccc21 (centres unmarked) [Compound 32, 4-chloro-N-(1-(2-chloro-3-(trifluoromethyl)phenyl)-2-hydroxyethyl)-1-(2-methoxyethyl)-1H-indole-3-carboxamide] |  |  | 500 to 999 | 101 to 500
20 | C[C@H]1CCC[C@@](O)(CNC(=O)c2cn(CC(F)(F)F)c3cccc(Cl)c23)C1 [Compound 2, 4-chloro-N-(((1S,3S)-1-hydroxy-3-methylcyclohexyl)methyl)-1-(2,2,2-trifluoroethyl)-1H-indole-3-carboxamide] | 10 to 100 | 10 to 100 |  | 
21 | CC1CC(CNC(=O)c2cn(CC3CCCN3)c3cccc(Cl)c23)CC(F)(F)C1 (centres unmarked) [Compound 157, 4-chloro-N-((3,3-difluoro-5-methylcyclohexyl)methyl)-1-(pyrrolidin-2-ylmethyl)-1H-indole-3-carboxamide] |  | 10 to 100 | < 10 | 
22 | O=C(NCC1(N2CCN(c3ccccc3)CC2)CCCCC1)c1cn(C2COC2)c2cccc(Cl)c12 [Compound 51, 4-chloro-1-(oxetan-3-yl)-N-((1-(4-phenylpiperazin-1-yl)cyclohexyl)methyl)-1H-indole-3-carboxamide] |  | 10 to 100 | < 10 | 
23 | O=C1CC[C@H](Cn2cc(C(=O)NCC3CCC(F)(F)CC3)c3c(Cl)cccc32)N1 [Compound 162, (R)-4-chloro-N-((4,4-difluorocyclohexyl)methyl)-1-((5-oxopyrrolidin-2-yl)methyl)-1H-indole-3-carboxamide] | 10 to 100 | 10 to 100 |  | 
24 | O=C(NCC1CCC(F)(F)CC1)c1cn(C[C@@H]2CCCN2)c2cccc(Cl)c12 [Compound 153, (S)-4-chloro-N-((4,4-difluorocyclohexyl)methyl)-1-(pyrrolidin-2-ylmethyl)-1H-indole-3-carboxamide] | 10 to 100 |  |  | < 10
25 | O=C(NCC1CCC(F)(F)CC1)c1cn(CCN2CCCC2=O)c2cccc(Cl)c12 [Compound 189, 4-chloro-N-((4,4-difluorocyclohexyl)methyl)-1-(2-(2-oxopyrrolidin-1-yl)ethyl)-1H-indole-3-carboxamide] | 101 to 500 | 10 to 100 |  | 
26 | O=C1NC[C@H](Cn2cc(C(=O)NCC3CCC(F)(F)CC3)c3c(Cl)cccc32)O1 [Compound 126, (R)-4-chloro-N-((4,4-difluorocyclohexyl)methyl)-1-((2-oxooxazolidin-5-yl)methyl)-1H-indole-3-carboxamide] | 10 to 100 | 10 to 100 |  | 
27 | CN1CC[C@H]1Cn1cc(C(=O)NCC2CCC(F)(F)CC2)c2c(Cl)cccc21 [Compound 151, (S)-4-chloro-N-((4,4-difluorocyclohexyl)methyl)-1-((1-methylazetidin-2-yl)methyl)-1H-indole-3-carboxamide] | 10 to 100 | 10 to 100 |  | 
28 | CN(C)C(=O)Cn1cc(C(=O)NCC2CCC(F)(F)CC2)c2c(Cl)cccc21 [Compound 208, 4-Chloro-1-dimethylcarbamoylmethyl-1H-indole-3-carboxylic acid (4,4-difluoro-cyclohexylmethyl)-amide] | 10 to 100 |  |  | < 10
